Read-outs that look alike come from different tables or passages of the source.
Assays:
[1] = test system: HEK293 cells; test: Cell-based killing assay of payloads (CellTiter-Glo), HEK293 cells; set-up: species or system human; details: 5-day incubation; for IC50: Homo sapiens, HEK293, 120 h; for HEK293 % Kill: at maximum concentration tested
Procedure: (§1) To test the ability of the disclosed tubulysin payloads to kill human cell lines, an in vitro cytotoxicity assay was performed. In vitro cytotoxicity of the disclosed payloads, as well as reference compounds, were evaluated using the CellTiter-Glo Assay Kit (Promega, Cat #G7573), in which the quantity of ATP present is used to determine the number of viable cells in culture. For the assay, C4-2, HEK293, or T47D cells were seeded at 4000 cells/well on Nunclon white 96-well plates in complete growth medium (DME high glucose:Ham's F12 at 4:1, 10% FBS, 100 units/ml Penicillin, 100 ug/ml streptomycin, 53 ug/ml glutatmine, 10 ug/ml insulin, 220 ng/ml biotin, 12.5 pg/ml T3, 12.5 ug/ml Adenine, 4 ug/ml transferrin for C42 cells; DME high glucose, 10% FBS, 100 units/ml Penicillin, 100 ug/ml streptomycin, 53 ug/ml glutatmine for HEK293; RPMI, 10% FBS, 100 units/ml Penicillin, 100 ug/ml streptomycin, 53 ug/ml glutatmine, 10 ug/ml insulin, 10 mM HEPEs, 200 nM Sodium Pyruvate for T47D cells) and grown overnight at 37° C. in 5% CO2. For cell viability curves, 1:3 serially diluted payloads were added to the cells at final concentrations ranging from 100 nM to […], including a no treatment control group, and were then incubated for 5 days. After the 5-day incubation, cells were incubated at room temperature with 100 μL of CellTiter-Glo reagents for 10 minutes. Relative luminescence units (RLU) were determined on a Victor plate reader (PerkinElmer). The IC50 values were determined from a four-parameter logistic equation over a 10-point response curve (GraphPad Prism). All IC50 values are expressed in molar (M) concentration. The percent cell killing (% kill) at the maximum concentration tested was estimated from the following formula (100−% viable cells). Averages±standard deviation (SD) are included where replicate experiments were performed.

[2] = test system: T47D cells; test: Cell-based killing assay of payloads (CellTiter-Glo), T47D cells; set-up: species or system human; details: 5-day incubation; for IC50: Homo sapiens, T47D, 120 h; for T47D % Kill: at maximum concentration tested
Procedure: as §1

[3] = test system: MES-SA/MX2 cells; test: Cytotoxicity in panel of MDR cell lines, MES-SA/MX2 (72 h and 144 h); format: cell-based, human; details: for IC50: Homo sapiens
Procedure, shortened: (§2)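 Luminescent ATP readout (CellTiter-Glo) quantified viable cells after 72 h or 144 h exposure to 1:3 serial payload dilutions. Cells plated at 1000/well in their normal growth media. IC50 in M from a four-parameter logistic fit; % kill at top concentration taken as 100 − % viable.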

[4] = test system: C4-2 cells; test: Cell-based killing assay of payloads (CellTiter-Glo), C4-2 cells; set-up: species or system human; details: 5-day incubation; for IC50: Homo sapiens, C4-2, 120 h, average ± SD where replicates; for C4-2 % Kill: at maximum concentration tested (100 − % viable cells)
Procedure, shortened: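 Viability readout is CellTiter-Glo luminescence after a 5-day exposure to 10-point, threefold-diluted payloads spanning 100 nM–[…], following overnight attachment of 4000 cells/well. Four-parameter logistic fit gives IC50 in M; % kill taken at highest concentration tested.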

[5] = test system: HCT15 cells; test: cells; format: cell-based, human; details: HCT15 cells; for HCT-15 + verapamil % Kill / HCT-15 % Kill: maximum % cell killing
Procedure, shortened: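 Five-day exposure of 1000 HCT15 cells/well to threefold payload dilutions, run both plus and minus verapamil (5 ug/mL) in RPMI with 10% FBS. ATP luminescence (CellTiter-Glo) gives viability; four-parameter logistic fit of 10 points yields IC50, and 100 − % viable at highest dose gives % kill.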

[6] = test system: HL60/MX2 cells; test: Cytotoxicity in panel of MDR cell lines, HL60/MX2 (72 h and 144 h); format: cell-based, human; details: for IC50: Homo sapiens
Procedure, shortened: as §2

[7] = test system: HCT-15 cells; test: Cytotoxicity in panel of MDR cell lines, HCT-15 (72 h and 144 h); format: cell-based, human; details: for IC50: Homo sapiens
Procedure, shortened: as §2

[8] = test system: H69AR cells; test: Cytotoxicity in panel of MDR cell lines, H69AR (72 h and 144 h); format: cell-based, human; details: for IC50: Homo sapiens
Procedure, shortened: as §2

[9] = 72 h incubation, read-out: MES-SA/MX2 IC50 72 h
[10] = 144 h incubation, read-out: MES-SA/MX2 IC50 144 h
[11] = with 5 ug/mL Verapamil, read-out: HCT-15 + verapamil IC50
[12] = Homo sapiens, HCT-15, without Verapamil, read-out: HCT-15 IC50
[13] = 72 h incubation, read-out: HL60/MX2 IC50 72 h
[14] = 144 h incubation, read-out: HL60/MX2 IC50 144 h
[15] = 72 h incubation, read-out: HCT-15 IC50 72 h
[16] = 144 h incubation, read-out: HCT-15 IC50 144 h
[17] = 72 h incubation, read-out: H69AR IC50 72 h
[18] = 144 h incubation, read-out: H69AR IC50 144 h

SMILES | IC50 [1] [nM] | HEK293 % Kill [1] [%] | IC50 [2] [nM] | T47D % Kill [2] [%] | MES-SA/MX2 % Kill 72 h ([3]; 72 h incubation) [%] | MES-SA/MX2 % Kill 144 h ([3]; 144 h incubation) [%] | IC50 [3, 9] [nM] | IC50 [3, 10] [nM] | IC50 [4] [nM] | C4-2 % Kill [4] [%] | HCT-15 + verapamil % Kill ([5]; with 5 ug/mL Verapamil) [%] | IC50 [5, 11] [nM] | HCT-15 % Kill ([5]; without Verapamil) [%] | IC50 [5, 12] [nM] | HL60/MX2 % Kill 72 h ([6]; 72 h incubation) [%] | HL60/MX2 % Kill 144 h ([6]; 144 h incubation) [%] | IC50 [6, 13] [nM] | IC50 [6, 14] [nM] | HCT-15 % Kill 72 h ([7]; 72 h incubation) [%] | HCT-15 % Kill 144 h ([7]; 144 h incubation) [%] | other results
C#CCCCCN(C(=O)[C@@H](NC(=O)[C@H]1CCCCN1C)[C@@H](C)CC)[C@H](C[C@@H](OC(C)=O)c1nc(C(=O)N[C@@H](Cc2ccc(F)cc2)CC(C)(C)C(=O)O)cs1)C(C)C [IVc, (4S)-4-({2-[(1R,3R)-1-(Acetyloxy)-3-[(2S,3S)—N-(hex-5-yn-1-yl)-3-methyl-2-{[(2R)-1-methylpiperidin-2-yl]formamido}pentanamido]-4-methylpentyl]-1,3-thiazol-4-yl}formamido)-5-(4-fluorophenyl)-2,2-dimethylpentanoic acid] | 0.307 | 84.8 | 0.205 | 81.4 | 98.2 | 99.9 | 0.374 | 0.604 | 0.0924 | 92.2 | 98 | 0.113 | 99.2 | 0.302 | 97.7 | 99.9 | < 0.015 | < 0.015 | 97.3 | 99.8 | IC50 [7, 15]: 0.125 nM; IC50 [7, 16]: 0.165 nM; H69AR % Kill 72 h ([8]; 72 h incubation): 96.6%; H69AR % Kill 144 h ([8]; 144 h incubation): 99.3%; IC50 [8, 17]: 0.36 nM; IC50 [8, 18]: 0.725 nM
C#CCCCCN(C(=O)[C@@H](NC(=O)[C@H]1CCCCN1C)[C@@H](C)CC)[C@H](C[C@@H](OC(C)=O)c1nc(C(=O)N[C@@H](Cc2ccc(F)cc2)C[C@H](C)C(=O)O)cs1)C(C)C [IVe, (2S,4R)-4-({2-[(1R,3R)-1-(Acetyloxy)-3-[(2S,3S)—N-(hex-5-yn-1-yl)-3-methyl-2-{[(2R)-1-methylpiperidin-2-yl]formamido}pentanamido]-4-methylpentyl]-1,3-thiazol-4-yl}formamido)-5-(4-fluorophenyl)-2-methylpentanoic acid] | 0.281 | 86.7 | 0.155 | 67.2 | 99.6 | 99.9 | 0.786 | 2.81 | 0.0742 | 91.8 | 97.6 | 0.1 | 95.8 | 0.295 | 97.3 | 99.9 | < 0.015 | < 0.015 | 98.1 | 99.6 | IC50 [7, 15]: 0.133 nM; IC50 [7, 16]: 0.23 nM; H69AR % Kill 72 h ([8]; 72 h incubation): 96.5%; H69AR % Kill 144 h ([8]; 144 h incubation): 99%; IC50 [8, 17]: 0.585 nM; IC50 [8, 18]: 1.26 nM
